Measurements taken from US20200010482A1, “INHIBITORS OF BETA SECRETASE” (Janssen Pharmaceutica NV, priority 2017, published 2020).

System: brain levels of soluble Aβ42, Aβ40, Aβ38, and Aβ37
Test: In vivo Aβ lowering, brain levels of soluble Aβ by MSD electrochemiluminescence
Parameters: species or system mouse
Details: 10 mg/kg s.c., 4 h after administration; untreated animals as control set at 100
Text: To determine whether acute administration of an Aβ lowering agent would reduce Aβ levels in vivo, non-transgenic rodents, e.g. mice or rats were used. Animals treated with the Aβ lowering agent were examined and compared to those untreated or treated with vehicle and brain levels of soluble Aβ42, Aβ40, Aβ38, and Aβ37 were quantitated by Meso Scale Discovery's (MSD) electrochemiluminescence detection technology. Treatment periods varied from hours (h) to days and were adjusted based on the results of the Aβ lowering once a time course of onset of effect could be established.
A typical protocol for measuring Aβ lowering in vivo is shown but it is only one of many variations that could be used to optimize the levels of detectable Aβ. […] After 4 h, the animals were sacrificed and Aβ levels were analysed.
Blood was collected by decapitation and exsanguinations in EDTA-treated collection tubes. […] The left hemisphere was stored at −18° C. for quantitative analysis of test compound levels. […]
Mouse brains from non-transgenic animals were resuspended in 8 volumes of 0.4% DEA (diethylamine)/50 mM NaCl containing protease inhibitors (Roche-11873580001 or 04693159001) per gram of tissue, e.g. for 0.158 g brain, add 1.264 ml of 0.4% DEA. […] Nine parts of supernatant were neutralized with 1 part 0.5 M Tris-HCl pH 6.8 and used to quantify Aβ. […]

COc1ncc(C#N)c2c1C[C@]1(c3ccccc3F)N=C(N)SC[C@@H]1C2 (racemic) [Compound 22]
Aβ40 (% vs Ctrl)_Mean: 39 % vs Ctrl | Aβ42 (% vs Ctrl)_Mean: 32 % vs Ctrl
